One data set relates to γ-H2AX (S139). The experiment in a line: IR-induced H2AX. In kind it is cell-based, human. Particulars: for γ-H2AX levels: 10 Gy.
For data set [1], the system named is (S9) GSK3β phosphorylation. Type of data set: cell-based. As to conditions: in vivo and in vitro (Fig. S1C, D).
Data set [2] deals with (S136) BAD phosphorylation. In kind it is cell-based. Particulars: in vivo and in vitro (Fig. S1C, D).
For the next data set, the system named is AKT T308 phosphorylation. The experiment in a line: Radiation-induced AKT T308 phosphorylation. Particulars: Fig. S1B. Type of data set: cell-based.
Data set [3] concerns p53 (S15) phosphorylation. The experiment in a line: IR-induced p53. In kind it is cell-based, human. Particulars: for inhibition of IR-induced p53 (S15) phosphorylation: 1 h after IR.
Data set [4] concerns panel of 60 protein kinases. Particulars: cited from earlier work.
Data set [5] deals with AKT (S473) phosphorylation. The experiment in a line: Insulin-stimulated AKT phosphorylation, normal fibroblasts. In kind it is cell-based, human. As to conditions: NFs.
Another data set deals with mTOR (Homo sapiens, UniProt P42345). The data set can be described thus: Millipore KinaseProfiler, mTOR. As to conditions: 1 μM. In kind it is biochemical.
Data set [6] deals with AKT (S473) phosphorylation. The data set can be described thus: AKT. In kind it is cell-based, human.
The test system of data set [7] is U87 cells. The experiment in a line: Migration assay through 8 μm pore membranes, U87. Type of data set: cell-based. Particulars: Homo sapiens, U-87 MG, 6 h, read-out: inhibition of migration.
The subject of the next data set is p53 phosphorylation. The experiment in a line: IR-induced p53 phosphorylation, western blot, U1242 cells. Type of data set: cell-based, human. Particulars: U1242, 3 μM, 5 Gy. For orientation: A western blot detects proteins with antibodies after separation by electrophoresis.
In data set [8] the test system is U87 cells. The experiment in a line: Invasion through matrigel, U87. Type of data set: cell-based. As to conditions: Homo sapiens, U-87 MG, 48 h, read-out: inhibition of invasion through matrigel.
The next data set addresses PI3K (p110β/p85α) (Homo sapiens, UniProt P42338). The data set can be described thus: PI3-Kinase HTRF assay. Particulars: read-out: PI3K (p110β/p85α) inhibited. In kind it is biochemical. For orientation: In TR-FRET formats the signal depends on donor and acceptor labels being close together.
Data set [9] has as its system CHK2 phosphorylation (T68). The data set can be described thus: IR-induced CHK2. In kind it is cell-based, human. As to conditions: U1242, 3 μM, 5 Gy, up to 1 h after irradiation.
The test system of data set [10] is h-TERT-immortalized A-T fibroblasts. The experiment in a line: Radiosurvival, Trypan blue/FACS assay, A-T fibroblasts. Type of data set: cell-based, human. Particulars: 10 μM, 7 days post-IR. A general note: In flow cytometry, cells or beads pass a laser one at a time.
Another data set deals with PI3K (p120γ) (Homo sapiens, UniProt P48736). The experiment in a line: PI3-Kinase HTRF assay. In kind it is biochemical. As to conditions: read-out: PI3K (p120γ) inhibited.
Chain of PI3K (p120γ) (P48736 whole entry): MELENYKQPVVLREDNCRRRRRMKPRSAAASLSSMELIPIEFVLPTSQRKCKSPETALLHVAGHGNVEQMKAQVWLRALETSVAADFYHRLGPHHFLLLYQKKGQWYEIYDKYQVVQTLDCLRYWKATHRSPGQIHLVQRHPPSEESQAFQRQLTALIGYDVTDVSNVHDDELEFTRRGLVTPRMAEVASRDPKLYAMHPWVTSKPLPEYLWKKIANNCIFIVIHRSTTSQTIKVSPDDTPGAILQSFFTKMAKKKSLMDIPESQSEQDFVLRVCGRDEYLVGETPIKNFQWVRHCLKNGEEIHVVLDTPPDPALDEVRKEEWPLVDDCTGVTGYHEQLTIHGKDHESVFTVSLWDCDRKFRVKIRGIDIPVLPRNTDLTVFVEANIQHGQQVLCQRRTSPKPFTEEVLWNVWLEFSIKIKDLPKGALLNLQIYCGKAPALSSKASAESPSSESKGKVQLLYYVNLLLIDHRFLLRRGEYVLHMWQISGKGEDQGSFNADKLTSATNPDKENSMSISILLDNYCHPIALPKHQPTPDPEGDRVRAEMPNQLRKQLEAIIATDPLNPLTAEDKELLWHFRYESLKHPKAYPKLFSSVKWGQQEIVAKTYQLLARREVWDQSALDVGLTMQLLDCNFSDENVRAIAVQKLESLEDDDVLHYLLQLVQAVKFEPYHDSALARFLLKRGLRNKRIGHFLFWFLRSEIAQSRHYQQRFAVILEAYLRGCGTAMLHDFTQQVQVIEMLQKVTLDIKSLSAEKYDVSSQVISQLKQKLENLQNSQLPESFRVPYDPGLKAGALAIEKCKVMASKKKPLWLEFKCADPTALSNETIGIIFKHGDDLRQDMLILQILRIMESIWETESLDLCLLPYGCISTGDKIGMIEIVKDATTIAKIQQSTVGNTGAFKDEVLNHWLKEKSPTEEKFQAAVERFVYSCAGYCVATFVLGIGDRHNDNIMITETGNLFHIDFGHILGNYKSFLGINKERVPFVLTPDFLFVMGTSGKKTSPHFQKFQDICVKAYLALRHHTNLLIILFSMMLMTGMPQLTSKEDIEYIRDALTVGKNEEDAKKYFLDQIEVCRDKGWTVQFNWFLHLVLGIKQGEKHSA
Data set [11] concerns panel of 229 protein kinases. The experiment in a line: Millipore KinaseProfiler panel. Type of data set: biochemical. Particulars: 1 μM; Table S1.
In data set [12] the test system is h-TERT-immortalized normal fibroblasts. The data set can be described thus: Radiosurvival, Trypan blue/FACS assay, normal fibroblasts. In kind it is cell-based, human. Particulars: 10 μM, 7 days post-IR.
The test system of data set [13] is U1242 cells. The data set can be described thus: Cell growth, AlamarBlue, U1242. Type of data set: cell-based, human. As to conditions: U1242, 3 μM, over a 5 day period.
The subject of the next data set is γ-H2AX. The data set can be described thus: IR-induced γ-H2AX, western blot, U1242 cells. Type of data set: cell-based, human. As to conditions: U1242, 3 μM, 5 Gy, especially at times ≤15 min.
The subject of data set [14] is U1242 cells. The data set can be described thus: Radiosurvival, Trypan blue/FACS assay, U1242. In kind it is cell-based, human.
Data set [15] has as its system U1242 cells. The experiment in a line: Invasion through matrigel inserts, U1242. As to conditions: Homo sapiens, 48 h, read-out: inhibition of invasion. In kind it is cell-based.
Data set [16] relates to AKT (S473) phosphorylation. The experiment in a line: AKT. As to conditions: U1242, 3 μM, 5 Gy. In kind it is cell-based, human.
For a further data set, the target named is PI3K (p110δ/p85α) (Homo sapiens, UniProt O00329). The experiment in a line: PI3-Kinase HTRF assay. Type of data set: biochemical. As to conditions: read-out: PI3K (p110δ/p85α) inhibited.
Chain of PI3K (p110δ/p85α) (O00329 whole entry): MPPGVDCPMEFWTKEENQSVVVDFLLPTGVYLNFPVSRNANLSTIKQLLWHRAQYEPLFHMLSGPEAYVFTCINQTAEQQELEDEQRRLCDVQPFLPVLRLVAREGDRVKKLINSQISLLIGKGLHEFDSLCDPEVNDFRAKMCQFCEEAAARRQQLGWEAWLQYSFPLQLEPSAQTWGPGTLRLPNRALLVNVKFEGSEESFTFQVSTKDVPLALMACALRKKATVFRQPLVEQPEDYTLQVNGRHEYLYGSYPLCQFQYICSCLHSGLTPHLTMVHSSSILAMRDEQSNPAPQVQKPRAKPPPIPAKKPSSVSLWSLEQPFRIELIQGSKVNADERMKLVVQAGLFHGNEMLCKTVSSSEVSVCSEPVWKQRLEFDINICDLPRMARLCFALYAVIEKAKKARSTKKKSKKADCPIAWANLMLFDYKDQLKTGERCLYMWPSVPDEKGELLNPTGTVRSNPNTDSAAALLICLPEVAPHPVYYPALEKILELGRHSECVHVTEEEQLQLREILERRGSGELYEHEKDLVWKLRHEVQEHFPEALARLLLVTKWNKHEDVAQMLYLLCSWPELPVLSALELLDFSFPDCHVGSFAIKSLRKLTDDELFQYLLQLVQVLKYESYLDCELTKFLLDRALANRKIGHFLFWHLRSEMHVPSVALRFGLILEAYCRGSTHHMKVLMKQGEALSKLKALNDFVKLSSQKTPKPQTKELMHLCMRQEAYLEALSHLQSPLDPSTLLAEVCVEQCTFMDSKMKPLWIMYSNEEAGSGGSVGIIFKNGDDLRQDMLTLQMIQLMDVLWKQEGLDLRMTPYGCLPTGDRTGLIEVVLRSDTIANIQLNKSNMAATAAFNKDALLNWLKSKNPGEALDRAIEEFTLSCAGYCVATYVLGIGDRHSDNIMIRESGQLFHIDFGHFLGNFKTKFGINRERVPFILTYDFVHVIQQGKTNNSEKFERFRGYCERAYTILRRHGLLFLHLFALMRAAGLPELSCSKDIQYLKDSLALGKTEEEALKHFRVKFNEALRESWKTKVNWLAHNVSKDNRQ
Chain of PI3K (p110δ/p85α) (P27986 whole entry partner): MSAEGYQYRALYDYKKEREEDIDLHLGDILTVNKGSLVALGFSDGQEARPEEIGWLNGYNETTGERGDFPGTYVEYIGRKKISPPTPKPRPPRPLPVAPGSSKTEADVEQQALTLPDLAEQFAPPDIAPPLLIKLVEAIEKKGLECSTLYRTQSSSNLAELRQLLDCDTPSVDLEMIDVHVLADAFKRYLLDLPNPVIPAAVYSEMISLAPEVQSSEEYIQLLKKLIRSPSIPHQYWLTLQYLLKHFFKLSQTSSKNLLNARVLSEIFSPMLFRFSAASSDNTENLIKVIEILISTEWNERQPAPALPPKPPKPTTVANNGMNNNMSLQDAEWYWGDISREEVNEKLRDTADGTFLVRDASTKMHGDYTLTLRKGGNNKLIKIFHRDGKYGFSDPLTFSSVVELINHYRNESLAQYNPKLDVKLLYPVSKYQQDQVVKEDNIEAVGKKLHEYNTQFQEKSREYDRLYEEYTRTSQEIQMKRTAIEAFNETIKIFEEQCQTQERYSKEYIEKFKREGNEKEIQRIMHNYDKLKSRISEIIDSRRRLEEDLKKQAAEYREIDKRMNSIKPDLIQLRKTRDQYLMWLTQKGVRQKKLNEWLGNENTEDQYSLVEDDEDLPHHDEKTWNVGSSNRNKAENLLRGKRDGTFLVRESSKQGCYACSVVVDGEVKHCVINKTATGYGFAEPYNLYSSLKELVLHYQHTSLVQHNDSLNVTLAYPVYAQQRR
For data set [17], the system named is U1242 cells. The data set can be described thus: Scratch. Type of data set: cell-based, human.
The test system of data set [18] is AKT (S473) phosphorylation. The experiment in a line: Insulin-stimulated AKT phosphorylation, A-T fibroblasts. In kind it is cell-based, human. As to conditions: A-T cells, in response to insulin.
Data set [19] has as its system U87 cells. The experiment in a line: Radiosurvival, Trypan blue/FACS assay, U87. Type of data set: cell-based, human. As to conditions: U87, 3 μM, 4 Gy, alone.

Molecules are shown by their SMILES.

Chain of PI3K (p110β/p85α) (P42338 whole entry): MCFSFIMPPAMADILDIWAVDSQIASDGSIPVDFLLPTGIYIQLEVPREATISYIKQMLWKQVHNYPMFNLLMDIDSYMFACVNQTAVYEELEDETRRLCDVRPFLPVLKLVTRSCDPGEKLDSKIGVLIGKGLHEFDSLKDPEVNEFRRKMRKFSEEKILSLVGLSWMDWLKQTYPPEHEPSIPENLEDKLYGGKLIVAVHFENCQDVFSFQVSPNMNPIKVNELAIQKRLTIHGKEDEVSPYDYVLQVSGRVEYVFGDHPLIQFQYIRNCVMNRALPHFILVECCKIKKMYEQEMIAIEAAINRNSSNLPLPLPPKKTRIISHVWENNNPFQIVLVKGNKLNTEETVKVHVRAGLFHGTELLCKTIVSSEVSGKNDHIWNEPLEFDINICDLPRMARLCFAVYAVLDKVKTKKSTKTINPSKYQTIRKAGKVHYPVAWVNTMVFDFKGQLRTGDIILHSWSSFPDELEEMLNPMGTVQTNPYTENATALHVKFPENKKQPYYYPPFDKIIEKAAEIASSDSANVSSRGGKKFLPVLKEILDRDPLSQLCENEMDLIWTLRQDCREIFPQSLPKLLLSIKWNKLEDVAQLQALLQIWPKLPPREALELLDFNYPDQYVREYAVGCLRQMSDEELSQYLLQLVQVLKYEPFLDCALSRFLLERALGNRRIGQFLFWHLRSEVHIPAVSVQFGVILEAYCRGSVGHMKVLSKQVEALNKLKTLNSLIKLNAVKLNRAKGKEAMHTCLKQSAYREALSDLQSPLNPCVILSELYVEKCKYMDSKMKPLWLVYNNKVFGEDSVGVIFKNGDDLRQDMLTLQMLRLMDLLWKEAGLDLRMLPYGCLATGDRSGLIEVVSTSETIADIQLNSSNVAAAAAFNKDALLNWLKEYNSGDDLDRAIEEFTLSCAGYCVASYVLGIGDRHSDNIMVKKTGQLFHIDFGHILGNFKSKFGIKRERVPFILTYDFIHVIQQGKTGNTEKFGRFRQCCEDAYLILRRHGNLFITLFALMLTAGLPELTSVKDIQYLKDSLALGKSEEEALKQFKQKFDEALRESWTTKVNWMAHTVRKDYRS
Chain of PI3K (p110β/p85α) (P27986 whole entry partner): as the sequence (P27986 whole entry partner) above

Consider `O=c1cc(-c2cccc3c2Sc2ccccc2S3)oc(N2CCOCC2)c1` [KU-55933, reference compound], for which the γ-H2AX levels entry in the data set with γ-H2AX (S139) (U87, 10 μM, 1 h after irradiation) is on record as “only partly reduced”. Further, the “effect on phosphorylation of (S9) GSK3β” value in [1] is on record as “reduced”. The “effect on phosphorylation of (S136) BAD” value in data set [2] is given as “reduced”. Moreover, the “effect on radiation-induced AKT T308 phosphorylation” value in the data set with AKT T308 phosphorylation is listed as “attenuated”. Besides, the “inhibition of IR-induced p53 (S15) phosphorylation” value in data set [3] (U87, 3 μM, 10 Gy) is reported as “not at 3 μM”; in data set [3] (U87, 10 μM, 10 Gy), “completely inhibited”. In addition, the “specificity using a panel of 60 protein kinases” value in data set [4] is “highly specific for the ATM kinase”.
On to `C[C@@H]1CN(CC(=O)Nc2ccc3c(c2)Cc2cccc(-c4cc(=O)cc(N5CCOCC5)o4)c2S3)C[C@H](C)O1` [KU-60019, 2-((2R, 6S)-2,6-Dimethyl-morpholin-4-yl)-N-[5-(6-morpholin-4-yl-4-oxo-4H-pyran-2-yl)-9H-thioxanthen-2-yl]-acetamide], for which the “reduction of AKT phosphorylation” value in [5] is ~ 45%. For the same compound, at mTOR, the mTOR inhibition entry is reported as “not inhibited”. Moreover, in data set [6] (U87, 3 μM, 5 Gy), the “effect on radiation-induced increase in phospho-AKT (S473)” value is given as “almost completely blocked”. Moreover, the “earliest time of effect on S473 dephosphorylation after addition of drug” value in data set [6] (U87, 3 μM, drug alone) was 5 min. The “reduction in AKT phosphorylation” value in data set [6] (U87, insulin-stimulated) is on record as ~ 50%. In [6] (pooled data from several independent experiments (Fig. S1A)), the “reduction of basal AKT S473 phosphorylation” value stood at 70%. Further, the inhibition at 10 µM in the data set with U87 cells [7] is at least 70%. Also, the “inhibition of p53 phosphorylation” value in the data set on p53 phosphorylation is on record as “completely inhibited”; in [3] (U87, 3 μM, 10 Gy, 15 min post-IR), “completely inhibited”. In addition, the inhibition at 3 µM in the data set on U87 cells [8] is about 60%; with U1242 cells [15] it was about 60%; in the data set with U1242 cells [17] (Homo sapiens, read-out: inhibition of migration (scratch assay)), at least 50%. The γ-H2AX levels result in the data set on γ-H2AX (S139) (U87, 3 μM, 15 min) is reported as “reduced significantly”. Moreover, the “effect on H2AX phosphorylation” value in the data set on γ-H2AX (S139) (U87, 10 Gy, 1 h after irradiation) is listed as “little to no effect”. The “effect on phosphorylation of (S9) GSK3β” value in data set [1] is “reduced”. Further, the inhibition at 1 µM on PI3K (p110β/p85α) came out at 9%; on PI3K (p120γ), 3%; on PI3K (p110δ/p85α), 27%. The “inhibition of radiation-induced CHK2 phosphorylation (T68)” value in data set [9] is “completely inhibited”. Moreover, the radiosensitization result in [10] is “not radiosensitized”; in data set [12] it was “radiosensitized”; with U1242 cells [14] (U1242, 3 μM, 4 days post-IR, level between that of U87 cells treated with 1 and 10 μM), “radiosensitized”. In addition, in [11], the “non-specific target effects against a panel of 229 protein kinases” value is reported as “little to no non-specific target effects”. Further, in data set [2], the “effect on phosphorylation of (S136) BAD” value is listed as “reduced”. Also, in the data set on U1242 cells [13], the suppression of growth was ~ 40%. The “inhibition of γ-H2AX” value in the data set with γ-H2AX was “partially inhibited”. The “effect on basal and radiation-induced AKT S473 phosphorylation” value in [16] was “almost completely abrogated”. For the same compound, the “inhibition of IR-induced p53 (S15) phosphorylation” value in data set [3] (U87, 1 μM, 10 Gy) was “partial inhibited”; in data set [3] (U87, 3 μM, 10 Gy) it was “completely inhibited”. Also, the “p53 (S15) phosphorylation blocked” value in data set [3] (U87, 1 μM, after IR) is over 70%. Besides, in the data set on U1242 cells [17] (U1242, 3 μM, at 10 h), the “rate of gap closure slower than untreated” value worked out at 50%. The “effect on S473 phosphorylation” value in data set [18] is “did not affect”.
As for `C=C1[C@@H](O)[C@@H]2O[C@]3(CC[C@H](/C=C/[C@@H](C)[C@@H]4CC(C)=C[C@@]5(O[C@H](C[C@@](C)(O)C(=O)O)CC[C@H]5O)O4)O3)CC[C@H]2O[C@@H]1[C@@H](O)C[C@H](C)[C@H]1O[C@@]2(CCCCO2)CC[C@H]1C` [OA, okadaic acid, reference compound], the “increase of AKT S473 phosphorylation compared to untreated control” value in data set [6] (U87, OA by itself) is given as over 2 fold. In data set [6] (U87, ≥30 nM OA with KU-60019 3 μM, 1 h), the “reduction of the effect of KU-60019 on S473 phosphorylation” value is over 50%.
As to `O=C(NOCC1CC1)c1ccc(F)c(F)c1Nc1ccc(I)cc1Cl` [PD184352, reference compound], the effect on radiosurvival result with U1242 cells [14] (U1242, alone (Fig. S5)) was “slightly radioprotective”. The “effect on IR-induced killing” value with U87 cells [19] is “small but significant effect”.

These data come from article PMC2761990 (Molecular cancer therapeutics, 2009).
